Assay results taken from ChEMBL document CHEMBL3046027, “In vitro and in vivo antifungal activity of synthetic pure isothiocyanates against Sclerotinia sclerotiorum” (Pest Manag Sci, 2011).

What was measured:
[1] = test system: Sclerotinia sclerotiorum; test: In vivo antifungal Sclerotinia sclerotiorum in Pepper (Capsicum annuum L. cv. Sera Demre) assessed as inhibition of mycelial growth in volatile phase at 150 umol/L measured after 10 to 14 weeks; format: functional
[2] = test system: Sclerotinia sclerotiorum; test: In vivo antifungal Sclerotinia sclerotiorum in Pepper (Capsicum annuum L. cv. Sera Demre) assessed as inhibition of mycelial growth in volatile phase at 75 umol/L measured after 10 to 14 weeks; format: functional
[3] = test system: Sclerotinia sclerotiorum; test: Antifungal activity against Sclerotinia sclerotiorum assessed as inhibition of mycelial growth in volatile phase at 751 umol/l measured at 20 degC after 5 days; format: functional; conditions: 120 h, read-out: GI
[4] = test system: Sclerotinia sclerotiorum; test: Antifungal activity against Sclerotinia sclerotiorum assessed as inhibition of mycelial growth in volatile phase at 525 umol/l measured at 20 degC after 5 days; format: functional; conditions: 120 h, read-out: GI
[5] = test system: Sclerotinia sclerotiorum; test: Antifungal activity against Sclerotinia sclerotiorum assessed as inhibition of mycelial growth in volatile phase at 375 umol/l measured at 20 degC after 5 days; format: functional; conditions: 120 h, read-out: GI
[6] = test system: Sclerotinia sclerotiorum; test: Antifungal activity against Sclerotinia sclerotiorum assessed as inhibition of mycelial growth in volatile phase at 75 umol/l measured at 20 degC after 5 days; format: functional; conditions: 120 h, read-out: GI
[7] = test system: Sclerotinia sclerotiorum; test: Antifungal activity against Sclerotinia sclerotiorum assessed as inhibition of mycelial growth in volatile phase at 38 umol/l measured at 20 degC after 5 days; format: functional; conditions: 120 h, read-out: GI
[8] = test system: Sclerotinia sclerotiorum; test: Antifungal activity against Sclerotinia sclerotiorum assessed as inhibition of mycelial growth in contact phase at 2252 umol/l measured at 20 degC after 5 days; format: functional; conditions: 120 h, read-out: GI
[9] = test system: Sclerotinia sclerotiorum; test: Antifungal activity against Sclerotinia sclerotiorum assessed as inhibition of mycelial growth in contact phase at 1501 umol/l measured at 20 degC after 5 days; format: functional; conditions: 120 h, read-out: GI
[10] = test system: Sclerotinia sclerotiorum; test: Antifungal activity against Sclerotinia sclerotiorum assessed as inhibition of mycelial growth in contact phase at 751 umol/l measured at 20 degC after 5 days; format: functional; conditions: 120 h, read-out: GI
[11] = test system: Sclerotinia sclerotiorum; test: Antifungal activity against Sclerotinia sclerotiorum assessed as inhibition of mycelial growth in contact phase at 676 umol/l measured at 20 degC after 5 days; format: functional; conditions: 120 h, read-out: GI
[12] = test system: Sclerotinia sclerotiorum; test: Antifungal activity against Sclerotinia sclerotiorum assessed as inhibition of mycelial growth in contact phase at 525 umol/l measured at 20 degC after 5 days; format: functional; conditions: 120 h, read-out: GI
[13] = test system: Sclerotinia sclerotiorum; test: Fungistatic activity in Sclerotinia sclerotiorum assessed as inhibition of carpogenic germination in volatile phase at 75 umol/l measured at 20 degC after 5 days relative to control; format: functional; conditions: 120 h
[14] = test system: Sclerotinia sclerotiorum; test: Fungistatic activity in Sclerotinia sclerotiorum assessed as inhibition of carpogenic germination in volatile phase at 38 umol/l measured at 20 degC after 5 days relative to control; format: functional; conditions: 120 h
[15] = test system: Sclerotinia sclerotiorum; test: Fungistatic activity in Sclerotinia sclerotiorum assessed as inhibition of carpogenic germination in volatile phase at 751 umol/l measured at 20 degC after 5 days relative to control; format: functional; conditions: 120 h
[16] = test system: Sclerotinia sclerotiorum; test: Fungistatic activity in Sclerotinia sclerotiorum assessed as inhibition of carpogenic germination in volatile phase at 375 umol/l measured at 20 degC after 5 days relative to control; format: functional; conditions: 120 h
[17] = test system: Sclerotinia sclerotiorum; test: Fungistatic activity in Sclerotinia sclerotiorum assessed as sclerotial viability measured at 20 degC after 5 days; format: functional, organism-based; conditions: 120 h
[18] = test system: Sclerotinia sclerotiorum; test: Fungistatic activity in Sclerotinia sclerotiorum assessed as inhibition of mycelial growth in volatile phase measured at 20 degC after 5 days; format: functional, organism-based; conditions: 120 h
[19] = test system: Sclerotinia sclerotiorum; test: Fungistatic activity in Sclerotinia sclerotiorum assessed as inhibition of mycelial growth in contact phase measured at 20 degC after 5 days; format: functional, organism-based; conditions: 120 h
[20] = test system: Sclerotinia sclerotiorum; test: Fungitoxic activity in Sclerotinia sclerotiorum assessed as viability in volatile phase at 225 umol/l measured at 20 degC after 5 days relative to control; format: functional; conditions: 120 h, read-out: GI
[21] = test system: Sclerotinia sclerotiorum; test: Fungitoxic activity in Sclerotinia sclerotiorum assessed as inhibition of mycelial growth in contact phase at 2252 umol/l measured at 20 degC after 5 days relative to control; format: functional; conditions: 120 h, read-out: GI
[22] = test system: Sclerotinia sclerotiorum; test: Fungistatic activity in Sclerotinia sclerotiorum assessed as inhibition of mycelial growth in contact phase at 1501 umol/l measured at 20 degC after 5 days relative to control; format: functional; conditions: 120 h, read-out: GI
[23] = test system: Sclerotinia sclerotiorum; test: Fungitoxic activity in Sclerotinia sclerotiorum assessed as inhibition of mycelial growth in volatile phase at 751 umol/l measured at 20 degC after 5 days relative to control; format: functional; conditions: 120 h, read-out: GI
[24] = test system: Sclerotinia sclerotiorum; test: Antifungal activity against Sclerotinia sclerotiorum assessed as inhibition of germination in volatile phase at 225 umol/l measured at 20 degC after 5 days; format: functional; conditions: 120 h
[25] = test system: Sclerotinia sclerotiorum; test: Antifungal activity against Sclerotinia sclerotiorum assessed as inhibition of germination in volatile phase at 75 umol/l measured at 20 degC after 5 days; format: functional; conditions: 120 h
[26] = test system: Sclerotinia sclerotiorum; test: Antifungal activity against Sclerotinia sclerotiorum assessed as inhibition of germination in volatile phase at 38 umol/l measured at 20 degC after 5 days; format: functional; conditions: 120 h
[27] = test system: Sclerotinia sclerotiorum; test: Fungistatic activity in Sclerotinia sclerotiorum assessed as inhibition of mycelial growth in volatile phase at 525 umol/l measured at 20 degC after 5 days relative to control; format: functional; conditions: 120 h, read-out: GI
[28] = test system: Sclerotinia sclerotiorum; test: Antifungal activity against Sclerotinia sclerotiorum assessed as inhibition of germination in volatile phase at 751 umol/l measured at 20 degC after 5 days; format: functional; conditions: 120 h
[29] = test system: Sclerotinia sclerotiorum; test: Antifungal activity against Sclerotinia sclerotiorum assessed as inhibition of germination in volatile phase at 375 umol/l measured at 20 degC after 5 days; format: functional; conditions: 120 h

Q: Which inhibition in vivo at 150 µM [1] does the source give for `S=C=NCc1ccccc1` [BENZYL ISOTHIOCYANATE] here?
A: The inhibition in vivo at 150 µM was 63.3%.

Q: And the inhibition in vivo at 75 µM [2]?
A: The inhibition in vivo at 75 µM was 36.7%.

Q: And the inhibition of growth at 751 µM [3]?
A: The inhibition of growth at 751 µM was 100%.

Q: And the inhibition of growth at 525 µM [4]?
A: Its inhibition of growth at 525 µM is 100%.

Q: What about the inhibition of growth at 375 µM [5] of the same compound?
A: The inhibition of growth at 375 µM was 78.2%.

Q: What about the inhibition of growth at 75 µM [6] of the same compound?
A: Its inhibition of growth at 75 µM is 71.2%.

Q: What about the inhibition of growth at 38 µM [7] of the same compound?
A: Its inhibition of growth at 38 µM is 35%.

Q: What about the inhibition of growth at 2252 µM [8] of the same compound?
A: The inhibition of growth at 2252 µM was 100%.

Q: What about the inhibition of growth at 1501 µM [9] of the same compound?
A: Its inhibition of growth at 1501 µM is 100%.

Q: And the inhibition of growth at 751 µM [10]?
A: Its inhibition of growth at 751 µM is 100%.

Q: What about the inhibition of growth at 676 µM [11] of the same compound?
A: The inhibition of growth at 676 µM was 37%.

Q: And the inhibition of growth at 525 µM [12]?
A: The inhibition of growth at 525 µM was 5%.

Q: What about the inhibition at 75 µM [13] of the same compound?
A: Its inhibition at 75 µM is 62.5%.

Q: And the inhibition at 38 µM [14]?
A: Its inhibition at 38 µM is 55%.

Q: What about the inhibition at 751 µM [15] of the same compound?
A: Its inhibition at 751 µM is 92.5%.

Q: What about the inhibition at 375 µM [16] of the same compound?
A: The inhibition at 375 µM was 72.5%.

Q: And the EC50 [17]?
A: Its EC50 is 75.1 µM.

Q: And the EC50 [18]?
A: The EC50 was 60.1 µM.

Q: What about the EC50 [19] of the same compound?
A: The EC50 was 676 µM.

Q: What about the inhibition of growth at 225 µM [20] of the same compound?
A: Its inhibition of growth at 225 µM is 100%.

Q: What about the inhibition of growth at 2252 µM [21] of the same compound?
A: The inhibition of growth at 2252 µM was 100%.

Q: And the inhibition of growth at 1501 µM [22]?
A: The inhibition of growth at 1501 µM was 100%.

Q: And the inhibition of growth at 751 µM [23]?
A: Its inhibition of growth at 751 µM is 100%.

Q: And the inhibition at 225 µM [24]?
A: The inhibition at 225 µM was 100%.

Q: And the inhibition at 75 µM [25]?
A: Its inhibition at 75 µM is 53.3%.

Q: And the inhibition at 38 µM [26]?
A: The inhibition at 38 µM was 6.7%.

Q: What about the inhibition of growth at 525 µM [27] of the same compound?
A: Its inhibition of growth at 525 µM is 100%.

Q: And the inhibition at 751 µM [28]?
A: Its inhibition at 751 µM is 100%.

Q: What about the inhibition at 375 µM [29] of the same compound?
A: The inhibition at 375 µM was 100%.
